Measurements from ChEMBL document CHEMBL3045835, “Comparative study of conventional and microwave-assisted synthesis of some Schiff bases and their potential as antimicrobial agents” (2012).
Converted amounts (≈) assume the structure as drawn.

Experiments:
Type in all cases: functional
[1] = test system: Micrococcus luteus; test: Antibacterial activity against Micrococcus luteus MTCC 1538 after 24 hr by broth dilution method; details: MTCC 1538, 24 h
[2] = test system: Bacillus pumilus; test: Antibacterial activity against Bacillus pumilus MTCC 1456 at 100 ug/ml after 18 hr by cup-plate method; details: MTCC 1456, 18 h, read-out: DIZ
[3] = test system: Micrococcus luteus; test: Antibacterial activity against Micrococcus luteus MTCC 1538 at 1500 ug/ml after 18 hr by cup-plate method; details: MTCC 1538, 18 h, read-out: DIZ
[4] = test system: Staphylococcus aureus; test: Antibacterial activity against Staphylococcus aureus MTCC 1430 at 200 ug/ml after 18 hr by cup-plate method; details: MTCC 1430, 18 h, read-out: DIZ
[5] = test system: Micrococcus luteus; test: Antibacterial activity against Micrococcus luteus MTCC 1538 at 1000 ug/ml after 18 hr by cup-plate method; details: MTCC 1538, 18 h, read-out: DIZ
[6] = test system: Escherichia coli; test: Antibacterial activity against Escherichia coli MTCC 1573 after 24 hr by broth dilution method; details: MTCC 1573, 24 h
[7] = test system: Micrococcus luteus; test: Antibacterial activity against Micrococcus luteus MTCC 1538 at 500 ug/ml after 18 hr by cup-plate method; details: MTCC 1538, 18 h, read-out: DIZ
[8] = test system: Bacillus subtilis; test: Antibacterial activity against Bacillus subtilis MTCC 441 at 500 ug/ml after 18 hr by cup plate method; details: MTCC 441, 18 h, read-out: DIZ
[9] = test system: Staphylococcus aureus; test: Antibacterial activity against Staphylococcus aureus MTCC 1430 at 100 ug/ml after 18 hr by cup-plate method; details: MTCC 1430, 18 h, read-out: DIZ
[10] = test system: Aspergillus niger; test: Antifungal activity against Aspergillus niger MTCC 2546 at 500 ug/ml after 18 hr by cup-plate method; details: MTCC 2546, 18 h, read-out: DIZ
[11] = test system: Penicillium chrysogenum; test: Antifungal activity against Penicillium chrysogenum MTCC 161 at 200 ug/ml after 18 hr by cup-plate method; details: MTCC 161, 18 h, read-out: DIZ
[12] = test system: Pseudomonas aeruginosa; test: Antibacterial activity against Pseudomonas aeruginosa MTCC 424 at 1500 ug/ml after 18 hr by cup-plate method; details: MTCC 424, 18 h, read-out: DIZ
[13] = test system: Penicillium chrysogenum; test: Antifungal activity against Penicillium chrysogenum MTCC 161 at 100 ug/ml after 18 hr by cup-plate method; details: MTCC 161, 18 h, read-out: DIZ
[14] = test system: Pseudomonas fluorescens; test: Antibacterial activity against Pseudomonas fluorescens MTCC 2421 at 100 ug/ml after 18 hr by cup-plate method; details: MTCC 2421, 18 h, read-out: DIZ
[15] = test system: Escherichia coli; test: Antibacterial activity against Escherichia coli MTCC 1573 at 500 ug/ml after 18 hr by cup-plate method; details: MTCC 1573, 18 h, read-out: DIZ
[16] = test system: Penicillium chrysogenum; test: Antifungal activity against Penicillium chrysogenum MTCC 161 at 1500 ug/ml after 18 hr by cup-plate method; details: MTCC 161, 18 h, read-out: DIZ
[17] = test system: Bacillus pumilus; test: Antibacterial activity against Bacillus pumilus MTCC 1456 at 500 ug/ml after 18 hr by cup-plate method; details: MTCC 1456, 18 h, read-out: DIZ
[18] = test system: Micrococcus luteus; test: Antibacterial activity against Micrococcus luteus MTCC 1538 at 200 ug/ml after 18 hr by cup-plate method; details: MTCC 1538, 18 h, read-out: DIZ
[19] = test system: Bacillus subtilis; test: Antibacterial activity against Bacillus subtilis MTCC 441 at 1500 ug/ml after 18 hr by cup plate method; details: MTCC 441, 18 h, read-out: DIZ
[20] = test system: Pseudomonas fluorescens; test: Antibacterial activity against Pseudomonas fluorescens MTCC 2421 at 200 ug/ml after 18 hr by cup-plate method; details: MTCC 2421, 18 h, read-out: DIZ
[21] = test system: Escherichia coli; test: Antibacterial activity against Escherichia coli MTCC 1573 at 1000 ug/ml after 18 hr by cup-plate method; details: MTCC 1573, 18 h, read-out: DIZ
[22] = test system: Escherichia coli; test: Antibacterial activity against Escherichia coli MTCC 1573 at 1500 ug/ml after 18 hr by cup-plate method; details: MTCC 1573, 18 h, read-out: DIZ
[23] = test system: Bacillus pumilus; test: Antibacterial activity against Bacillus pumilus MTCC 1456 after 24 hr by broth dilution method; details: MTCC 1456, 24 h
[24] = test system: Pseudomonas aeruginosa; test: Antibacterial activity against Pseudomonas aeruginosa MTCC 424 at 1000 ug/ml after 18 hr by cup-plate method; details: MTCC 424, 18 h, read-out: DIZ
[25] = test system: Staphylococcus aureus; test: Antibacterial activity against Staphylococcus aureus MTCC 1430 after 24 hr by broth dilution method; details: MTCC 1430, 24 h
[26] = test system: Aspergillus niger; test: Antifungal activity against Aspergillus niger MTCC 2546 at 200 ug/ml after 18 hr by cup-plate method; details: MTCC 2546, 18 h, read-out: DIZ
[27] = test system: Pseudomonas aeruginosa; test: Antibacterial activity against Pseudomonas aeruginosa MTCC 424 at 100 ug/ml after 18 hr by cup-plate method; details: MTCC 424, 18 h, read-out: DIZ

In the case of `C(=N/c1nc[nH]n1)/c1cccc2ccccc12`, the MIC [1] was 300 µg/mL (≈ 1350 µM), the zone of inhibition at 100 µg/mL [2] was 13 mm and the zone of inhibition at 1500 µg/mL [3] was 23 mm. It also gave a zone of inhibition at 200 µg/mL [4] of 13 mm, a zone of inhibition at 1000 µg/mL [5] of 20 mm and an MIC [6] of 50 µg/mL (≈ 225 µM). The zone of inhibition at 500 µg/mL [7] was 18 mm, the zone of inhibition at 500 µg/mL [8] was 18 mm and the zone of inhibition at 100 µg/mL [9] was 12 mm. For the same molecule, the zone of inhibition at 500 µg/mL [10] was 18 mm, the zone of inhibition at 200 µg/mL [11] was 18 mm and the zone of inhibition at 1500 µg/mL [12] was 24 mm. For the same molecule, the zone of inhibition at 100 µg/mL [13] was 17 mm, the zone of inhibition at 100 µg/mL [14] was 14 mm and the zone of inhibition at 500 µg/mL [15] was 19 mm. For the same molecule, the zone of inhibition at 1500 µg/mL [16] was 24 mm, the zone of inhibition at 500 µg/mL [17] was 17 mm and the zone of inhibition at 200 µg/mL [18] was 15 mm. The zone of inhibition at 1500 µg/mL [19] was 21 mm, the zone of inhibition at 200 µg/mL [20] was 16 mm and the zone of inhibition at 1000 µg/mL [21] was 23 mm. The zone of inhibition at 1500 µg/mL [22] was 25 mm, the MIC [23] was 300 µg/mL (≈ 1350 µM) and the zone of inhibition at 1000 µg/mL [24] was 22 mm. It also gave an MIC [25] of 400 µg/mL (≈ 1800 µM), a zone of inhibition at 200 µg/mL [26] of 17 mm and a zone of inhibition at 100 µg/mL [27] of 17 mm.
